Here are results for six compounds from US9409893B2, “Heteroaryl derivatives and uses thereof” (Jacobus Pharmaceutical Company, Inc., priority 2012, dated 2016).

Marks after values point to notes of the source that are not given here.

One assay has as its system P. falciparum strain W2. The experiment in a line: [3H]-hypoxanthine growth inhibition assay, P. falciparum W2. Type of assay: cell-based. Particulars: Plasmodium falciparum; P. falciparum W2 (resistant to chloroquine and pyrimethamine), [3H]-hypoxanthine incorporation; read-out: W2 IC50. A digest of the protocol:
(§1)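 Parasites cultured in human O Rh+ RBCs in RPMI-1640-LPLF (low PABA and folic acid) with 10% human plasma, pH 6.9, 37° C, 5% O2/5% CO2/90% N2. Sorbitol-synchronised ring-stage cultures started at 1% parasitaemia; growth measured as [3H]-hypoxanthine incorporation in hypoxanthine-free medium. Compound stocks 1 mM in DMSO.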

The next assay relates to P. falciparum strain D6. The experiment in a line: [3H]-hypoxanthine growth inhibition assay, P. falciparum D6. As to conditions: Plasmodium falciparum; P. falciparum D6 (sensitive to chloroquine and pyrimethamine), [3H]-hypoxanthine incorporation; read-out: D6 IC50. Format: cell-based. A digest of the protocol:
as §1

The test system of assay [1] is Plasmodium berghei (KBG-173 strain). The experiment in a line: Plasmodium berghei assay in vivo (modified Thompson Test) in CD-1 mice. Particulars: bid on days 3, 4 and 5; for Average Days Survival: 31 day experiment; for responders at 4 mg/kg / responders at 8 mg/kg / responders at 16 mg/kg / responders at 32 mg/kg / responders at 64 mg/kg: Plasmodium berghei, 744 h, CD-1 mice infected with P. berghei, read-out: Number of mice alive at day 31 (converted). How it is done:
In vivo antimalarial activity was tested in male or female Charles River CD-1 mice that were 4-5 weeks old and weighed 20-25 g They were housed in groups of 3 or 4 in standard plastic cages with wire tops, Bed-o-Cob® bedding, 12 hr/day of light, and maintained at 75° F. They were fed a standard Ralston Purina mouse chow and the cages and bottles were changed twice a week. Test compounds were ground in a mortar and pestle and diluted with enough vehicle to give a volume of 10 mL/kg of mouse weight. The oral doses were prepared in 0.5% hydroxyethylcellulose (Union Carbide Corp. WP 4400)/0.1% Tween-80 (Fisher Scientific T164-500). The amount of drug was calculated on the free base weight. The mice were infected intraperitoneally on day 0 with 5×10^4 erythrocytes parasitized with Plasmodium berghei (KBG-173 strain) from a donor mouse having a parasitemia between 5-10%. On days 3, 4 and 5 the test compounds were administered bid, spaced 6 hr apart, by oral gavage to the mice. Activity was measured by survival, with full activity defined as all animals living at day 31. Partial activity is defined as days of increased survival versus the infected non-treated controls. This in vivo model is a modification of the Thompson Test. For further description see Ager, A. L, Jr. Rodent Malaria Models. In Handbook of Experimental Pharmacology: Antimalarial Drugs. 1. 68/1; Peters, W., Richards, W. H. G., Eds.: Springer-Verlag: Berlin, 1984, pp. 231-33.

For orientation: IC50 means the concentration at which inhibition is half-maximal. In the case of `CC(C)(C)NCc1cc(C(C)(C)C)cc(-c2cnc(Cl)c(Cl)c2)c1O.Cl` [Example 41, 4-(tert-Butyl)-2-((tert-butylamino)methyl)-6-(5,6-dichloropyridin-3-yl)phenol hydrochloride], in the assay with P. falciparum strain W2, the IC50 was 3 nM. For the same compound, the IC50 in the assay with P. falciparum strain D6 was 10 nM. In assay [1] (4 mg/kg/day oral), the “Average Days Survival” value was >31* days and the responders at 4 mg/kg is 100%. Further, in assay [1] (8 mg/kg/day oral), the “Average Days Survival” value is recorded as >31* days and the responders at 8 mg/kg was 100%. Also, in assay [1] (16 mg/kg/day oral), the “Average Days Survival” value is recorded as >31* days and the responders at 16 mg/kg was 100%. In assay [1] (32 mg/kg/day oral), the “Average Days Survival” value is listed as >31* days and the responders at 32 mg/kg is 100%. Also, in assay [1] (64 mg/kg/day oral), the “Average Days Survival” value is on record as >31* days and the responders at 64 mg/kg was 100%.

As to `CC(C)(C)NCc1cc(C(C)(C)C)cc(-c2cnc(C(F)(F)F)c(Cl)c2)c1O.Cl` [Example 44, 4-(tert-Butyl)-2-((tert-butylamino)methyl)-6-(5-chloro-6-(trifluoromethyl)pyridin-3-yl)phenol hydrochloride], in the assay on P. falciparum strain W2, the IC50 came out at 6 nM. The IC50 with P. falciparum strain D6 was determined as 11 nM. In assay [1] (4 mg/kg/day oral), the “Average Days Survival” value is recorded as >31* days and the responders at 4 mg/kg was 100%. In addition, in assay [1] (8 mg/kg/day oral), the “Average Days Survival” value is recorded as >31* days and the responders at 8 mg/kg is 100%. Further, in assay [1] (16 mg/kg/day oral), the “Average Days Survival” value is >31* days and the responders at 16 mg/kg was 100%. For the same compound, in assay [1] (32 mg/kg/day oral), the “Average Days Survival” value is on record as >31* days and the responders at 32 mg/kg is 100%. In addition, in assay [1] (64 mg/kg/day oral), the “Average Days Survival” value was >31* days and the responders at 64 mg/kg is 100%.

Turning to `CC(C)(C)c1cc(CN(CC2CCCCC2)C(C)(C)C)c(O)c(-c2ccc(C(F)(F)F)nc2)c1.Cl` [Example 58, 4-(tert-Butyl)-2-((tert-butyl(cyclohexylmethyl)amino)methyl)-6-(6-(trifluoromethyl)pyridin-3-yl)phenol hydrochloride], the figures for the IC50 with P. falciparum strain W2 and in the assay with P. falciparum strain D6 were 541 nM and 1020 nM, respectively. In addition, the “Average Days Survival” value is over 17.5 days in assay [1] (4 mg/kg/day oral); over 20 days in assay [1] (8 mg/kg/day oral); over 23.8 days in assay [1] (16 mg/kg/day oral); over 26 days in assay [1] (32 mg/kg/day oral); >31* days in assay [1] (64 mg/kg/day oral). Further, the responders at 4 mg/kg in assay [1] (4 mg/kg/day oral) is 14.3%. Further, the responders at 8 mg/kg in assay [1] (8 mg/kg/day oral) is 42.9%. Besides, the responders at 16 mg/kg in assay [1] (16 mg/kg/day oral) was 42.9%. Also, the responders at 32 mg/kg in assay [1] (32 mg/kg/day oral) is 85.7%. In assay [1] (64 mg/kg/day oral), the responders at 64 mg/kg is 100%.

Turning to `CC(C)(C)NCc1cc(-c2ccc(F)cc2)cc(-c2ccc(C(F)(F)F)nc2)c1O.Cl` [Example 66, 3-((tert-Butylamino)methyl)-4′-fluoro-5-(6-(trifluoromethyl)pyridin-3-yl)-[1,1′-biphenyl]-4-ol hydrochloride], the half-maximal inhibitory concentration (IC50) in the assay with P. falciparum strain W2 is 41 nM. In addition, in the assay with P. falciparum strain D6, the IC50 was determined as 70 nM. Besides, in assay [1] (4 mg/kg/day oral), the “Average Days Survival” value was over 21.3 days and the responders at 4 mg/kg is 14.3%. In assay [1] (8 mg/kg/day oral), the “Average Days Survival” value was over 26 days and the responders at 8 mg/kg is 85.7%. In addition, in assay [1] (16 mg/kg/day oral), the “Average Days Survival” value was >31* days and the responders at 16 mg/kg is 100%. In assay [1] (32 mg/kg/day oral), the “Average Days Survival” value is on record as over 24 days and the responders at 32 mg/kg was 85.7%. Further, in assay [1] (64 mg/kg/day oral), the “Average Days Survival” value is over 7 days and the responders at 64 mg/kg was 85.7%.

As for `CC(C)(C)NCc1cc(-c2ccc(Cl)cc2)cc(-c2ccc(C(F)(F)F)nc2)c1O.Cl` [Example 70, 3-((tert-Butylamino)methyl)-4′-chloro-5-(6-(trifluoromethyl)pyridin-3-yl)-[1,1′-biphenyl]-4-ol hydrochloride], the IC50 with P. falciparum strain W2 was determined as 48 nM. The IC50 in the assay on P. falciparum strain D6 stood at 90 nM. In assay [1] (4 mg/kg/day oral), the “Average Days Survival” value is given as over 19.5 days and the responders at 4 mg/kg was 42.9%. Besides, in assay [1] (8 mg/kg/day oral), the “Average Days Survival” value is listed as over 21.5 days and the responders at 8 mg/kg was 71.4%. In addition, in assay [1] (16 mg/kg/day oral), the “Average Days Survival” value is over 19 days and the responders at 16 mg/kg was 57.1%. In assay [1] (32 mg/kg/day oral), the “Average Days Survival” value is >31* days and the responders at 32 mg/kg is 100%. Besides, in assay [1] (64 mg/kg/day oral), the “Average Days Survival” value was >31* days and the responders at 64 mg/kg was 100%.

For the compound `CC(C)(C)c1cc2c(c(-c3ccc(C(F)(F)F)nc3)c1)OCN(C(C)(C)C)C2` [Example 75, 3,6-di-tert-Butyl-8-(6-(trifluoromethyl)pyridin-3-yl)-3,4-dihydro-2H-benzo[e][1,3]oxazine], in the assay with P. falciparum strain W2, the IC50 came to 12 nM. Further, in the assay on P. falciparum strain D6, the half-inhibitory concentration (IC50) was 20 nM. Moreover, in assay [1] (4 mg/kg/day oral), the “Average Days Survival” value is listed as over 22 days and the responders at 4 mg/kg is 57.1%. Also, in assay [1] (8 mg/kg/day oral), the “Average Days Survival” value was over 25 days and the responders at 8 mg/kg is 57.1%. For the same compound, in assay [1] (16 mg/kg/day oral), the “Average Days Survival” value is recorded as >31* days and the responders at 16 mg/kg is 100%. Also, in assay [1] (32 mg/kg/day oral), the “Average Days Survival” value was >31* days and the responders at 32 mg/kg is 100%. In addition, in assay [1] (64 mg/kg/day oral), the “Average Days Survival” value is >31* days and the responders at 64 mg/kg was 100%.
